In publication PMC9966370, “Biological Evaluation and In Vitro Characterization of ADME Profile of In-House Pyrazolo[3,4-d]pyrimidines as Dual Tyrosine Kinase Inhibitors Active against Glioblastoma Multiforme” (Pharmaceutics, 2023):
Read-outs that look alike come from different tables or passages of the source.

Tests used:
[1] = cytotoxicity on nontumoral healthy cells, MTT assay, FIBRO 2-93; type: cell-based, human; details: human, FIBRO 2-93 healthy fibroblasts, 72 h treatment, MTT
Experimental: (§4) The protocol used to assess the cytotoxic effect on both healthy cell lines was the same described above for the antiproliferative assay. For both the antiproliferative and the cytotoxic assays, 3-(4,5-dimethylthiazol-2-yl)-2,5-diphenyltetrazolium bromide (MTT) was used to assess cell viability as previously described [20]. […] Afterward, formazan violet crystals were solubilized in 150 μL of isopropanol, and the absorbance was quantified at 570 nm using a Multiskan SkyHigh Microplate Spectrophotometer (ThermoFisher, Waltham, MA, USA). Cell viability was expressed as a percentage of DMSO-treated cells (controls), taken as 100%.

fibroblasts FIBRO 2-93 = test: as above; type: cell-based, human; details: for CC50: 72 h treatment, MTT; for CC50 times higher than IC50: CC50 on FIBRO 2-93 and HaCaT vs IC50 on GBM cells
Experimental: as §4

[2] = cytotoxicity on nontumoral healthy cells, MTT assay, HaCaT; type: cell-based, human; details: human, HaCaT keratinocytes, 72 h treatment
Experimental: as §4

keratinocytes HaCaT = test: as above; type: cell-based, human; details: 72 h treatment
Experimental: as §4

LN229 GBM cell line = test: antiproliferative activity, MTT assay, LN229; type: cell-based; details: Homo sapiens, LN-229, 72 h treatment
Experimental: (§1) Cell-based assays were performed using four GBM cell lines, i.e., U-87, LN18, LN229, and DBTRG, cultured in Dulbecco’s modified Eagle medium (DMEM) (U-87, LN18, and LN229) or Roswell Park Memorial Institute medium (RPMI 1640) (DBTRG). Both media were implemented with 10% fetal bovine serum (FBS), 2 mM L-glutamine, and 10,000 units/mL penicillin/streptomycin at 37 °C in a 5% CO2 atmosphere. […] The final concentration of DMSO used never exceeded 0.5% v/v, and appropriate controls were always performed in each assay. […] These were cultured in DMEM supplemented with 10% FBS, 2 mM L-glutamine, and 10,000 units/mL penicillin/streptomycin at 37 °C in a 5% CO2 atmosphere. The protocol used to assess the cytotoxic effect on both healthy cell lines was the same described above for the antiproliferative assay. For both the antiproliferative and the cytotoxic assays, 3-(4,5-dimethylthiazol-2-yl)-2,5-diphenyltetrazolium bromide (MTT) was used to assess cell viability as previously described. Briefly, 150 μL of MTT (5 mg/mL in FBS-free culture medium) was added to each well, and the plates incubated for 4 h in a 5% CO2 atmosphere at 37 °C. Afterward, formazan violet crystals were solubilized in 150 μL of isopropanol, and the absorbance was quantified at 570 nm using a Multiskan SkyHigh Microplate Spectrophotometer (ThermoFisher, Waltham, MA, USA). Cell viability was expressed as a percentage of DMSO-treated cells (controls), taken as 100%. […] To support MTT data, cytotoxicity assays was always paralleled by a careful observation of cells under a phase-contrast light microscope, as described in USP 28 (United States Pharmacopeia edition 2005) as an alternative method. This analysis was performed by an expert operator blind to the treatment, and exemplificative photos representing the effects of compound 5 on LN229 and DBTRG cells are reported in Figures S2 and S3 (Supplementary Materials).

U-87 GBM cell line [3] = details: previously published; cited from earlier work
DBTRG GBM cell line = test: antiproliferative activity, MTT assay, DBTRG; type: cell-based; details: Homo sapiens, 72 h treatment
Experimental: as §1

[4] = HLM, previously published, cited from earlier work
LN18 GBM cell line = test: antiproliferative activity, MTT assay, LN18; type: cell-based; details: Homo sapiens, LN-18, 72 h treatment
Experimental: as §1

PAMPA, BBB permeability = type: in vitro ADME; details: RT; for BBB membrane retention (MR%): 5 h, pH 7.4; for Papp at 5 h, 500 µM: pH 7.4, PAMPA
Experimental: (§2) UV/LC–MS chromatographic analyses were carried out using an Agilent 1100 LC/MSD VL system (G1946C) purchased from Agilent Technologies (Palo Alto, CA, USA). […] The analysis began with 5% B (t = 0–1 min), increased to 95% (t = 1–10 min), maintained at 95% (t = 10–19 min), and finally returned to 5% […]. The analyses were performed at a flow rate of 0.6 mL/min, UV detection was monitored at 254 nm, and spectra were acquired over the scan range of m/z 100–1000 in both positive and negative modes.
(§3) The DMSO stock of each compound was diluted with phosphate buffer (PBS 25 mM, pH 7.4) to a final concentration of 500 µM in order to obtain the “donor”. For GI and BBB permeability, filters were coated with 10 µL of 1% w/v dodecane phosphatidylcholine solution or 5 µL of 10% w/v CHCl3/dodecane brain polar lipid solution. The donor (150 µL) was poured over the artificial membranes on the filter plate. DMSO/PBS (300 µL, 1:1 v/v) was then added to the acceptor wells. After assembling the sandwich plates, the experiments were run for 5 h at room temperature (RT). Lastly, the amount of compound passed though the artificial membranes was determined using the UV/LC–MS method described above. Apparent permeability (Papp) and membrane retention (MR%) were determined as previously described.

PAMPA, GI permeability = type: in vitro ADME; details: RT; for GI membrane retention (MR%): 5 h, pH 7.4; for Papp at 5 h, 500 µM: pH 7.4, PAMPA
Experimental: as §2, §3

U-87 GBM cell line [5] = test: antiproliferative activity, MTT assay, U-87; type: cell-based; details: Homo sapiens, 72 h treatment
Experimental: as §1

[6] = metabolic stability assay in human liver microsomes; type: in vitro ADME; details: HLM 0.2 mg/mL, NADPH, 1 h, 37 °C
Experimental: as §2
Each DMSO compound solution was incubated for 1 h at 37 °C in the presence of 500 µL of PBS (25 mM, pH 7.4), human liver microsomal (HLM) proteins (0.2 mg/mL), and 10 mM NADPH solution in MgCl2 (48 mM). The reactions were stopped with 1.0 mL of cold ACN. The samples were centrifuged (4000 rpm for 10 min), and the supernatants were collected, dried under N2 flow, and suspended in 100 µL of methanol (MeOH). Parent drugs and metabolites were determined using the previously described HPLC/UV–MS method. The percentage metabolic stability was calculated by comparing the metabolized and unmetabolized compounds.

c-Src = molecular target: T1, c-Src (Homo sapiens, UniProt P12931); test: cell-free enzymatic assay (ADP-Glo), c-Src; type: biochemical; details: 100 µM ATP, 500 µM Src-peptide; read-out: c-Src Ki
T1 construct: purchased Promega (Madison, WI, USA)
Experimental: The reactions were carried out in accordance with the manufacturer’s instructions, with minor modifications. The experiments were run using all substrates at least twice the concentration of apparent Km. […] All reactions were run out at 30 °C for 10 min with 10–50 ng of enzyme and 10 µL of 10% DMSO. Protein low-binding tubes were used to prevent peptide adsorption onto the plastic surface. To detect kinase activity, the ADP-Glo Kinase Assay (Promega, Madison, WI, USA) was used according to the manufacturer’s protocol. Into white 384-well plates, reactions were stopped for 50 min at RT by adding 10 µL of ADP-Glo Reagent (Promega, Madison, WI, USA). After 30 min, 20 µL of Detection Reagent (Promega, Madison, WI, USA) was added, and the reaction was read using a GloMax Discover microplate reader (Promega, Madison, WI, USA). […] Compounds analyzed were considered to act as ATP-competitive inhibitors.

LN229 cells [7] = test: reversible/irreversible effect on LN229 cell death (MTT); type: cell-based, human; details: for further decrease in cell viability: 24 h treatment followed by 48 h without compound, vs 24 h
DBTRG cells = test: cell-cycle analysis by flow cytometry, DBTRG; type: cell-based, human; details: 72 h at IC50 (8.5 µM)
LN229 cells [8] = test: cell-cycle analysis by flow cytometry, LN229; type: cell-based, human; details: LN229, 72 h at IC50 (6.9 µM)
LN229 cells [9] = test: T-scratch assay (cell migration); type: cell-based, human; details: for wound closure: after 72 h; for wound left opened: all timepoints (24–48–72 h)
Experimental: The scratched area was observed and photographed at 10× magnification after 0–24–48–72 h (see Figure S5, Supplementary Materials).

T1 sequence (P12931 whole entry): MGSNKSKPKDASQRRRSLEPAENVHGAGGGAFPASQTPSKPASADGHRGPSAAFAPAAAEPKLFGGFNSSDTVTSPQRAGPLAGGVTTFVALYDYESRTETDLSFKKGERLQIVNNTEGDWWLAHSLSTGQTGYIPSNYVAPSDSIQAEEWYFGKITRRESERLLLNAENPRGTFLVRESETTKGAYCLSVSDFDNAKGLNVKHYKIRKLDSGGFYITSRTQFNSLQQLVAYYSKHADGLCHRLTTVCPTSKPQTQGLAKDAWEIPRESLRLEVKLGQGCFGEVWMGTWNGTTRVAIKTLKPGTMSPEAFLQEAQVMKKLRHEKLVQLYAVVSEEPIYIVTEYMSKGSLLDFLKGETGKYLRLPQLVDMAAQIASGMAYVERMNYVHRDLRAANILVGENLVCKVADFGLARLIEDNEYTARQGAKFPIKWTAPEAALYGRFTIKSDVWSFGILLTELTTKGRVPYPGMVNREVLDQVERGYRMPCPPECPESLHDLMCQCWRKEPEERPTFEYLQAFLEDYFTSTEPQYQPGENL

| SMILES | CC50 at 72 h [1] [µM] | CC50 (fibroblasts FIBRO 2-93) [µM] | CC50 times higher than IC50 (fibroblasts FIBRO 2-93) [times] | CC50 at 72 h [2] [µM] | CC50 (keratinocytes HaCaT) [µM] | IC50 (LN229 GBM cell line) [µM] | IC50 (DBTRG GBM cell line) [µM] | IC50 (LN18 GBM cell line) [µM] | BBB membrane retention (MR%) (PAMPA, BBB permeability) [%] | Papp at 5 h, 500 µM (PAMPA, BBB permeability) [×10⁻⁶ cm/s] | GI membrane retention (MR%) (PAMPA, GI permeability) [%] | Papp at 5 h, 500 µM (PAMPA, GI permeability) [×10⁻⁶ cm/s] | melting point [°C] | IC50 (U-87 GBM cell line [5]) [µM] | Metabolic Stability [6] [%] | Ki (c-Src) [µM] | other results |
| --- | --- | --- | --- | --- | --- | --- | --- | --- | --- | --- | --- | --- | --- | --- | --- | --- | --- |
| ClC(Cn1ncc2c(NCc3ccccc3)ncnc21)c1ccccc1 (stereo not shown) [Compound 1] | ~87 | 86.9 ± 4.2 | 10 | ~87 | 88.7 ± 5.7 | 3.4 ± 0.8 | 4.3 ± 0.8 | 3.6 ± 0.5 |  |  |  |  |  |  |  |  | IC50 (U-87 GBM cell line [3]): 2.9 ± 1.1 µM; Metabolite Formation M1 ([4]; M1 = M − HCl + O): 14.5%; Metabolite Formation M2 ([4]; M2 = M + OH): < 0.1%; Metabolite Formation M3 ([4]; M3 = M—group bearing NH moiety in R2): 2.6%; Metabolite Formation M4 ([4]; M4 = M − Cl + OH (−35 + 17)): 4.5%; Metabolic Stability [4]: lower than 80% |
| ClC(Cn1ncc2c(NC3CC3)ncnc21)c1ccccc1 (stereo not shown) [Compound 2] |  |  |  |  |  | > 100 | > 100 | 49.4 ± 2.8 | 55.0 | 4.96 | 34.7 | 6.46 | 194 to 195 | > 100 |  |  |  |
| Fc1ccccc1CNc1ncnc2c1cnn2CC(Cl)c1ccccc1 (stereo not shown) [Compound 3] |  |  |  |  |  | 29.2 ± 2.6 | 15.1 ± 2.1 | 27.5 ± 2.1 | 4.8 | ≥ 10 | 7.3 | ≥ 10 |  | 40.2 ± 3.6 | 80.4 |  |  |
| Fc1ccc(CNc2ncnc3c2cnn3CC(Cl)c2ccccc2)cc1 (stereo not shown) [Compound 4] |  |  |  |  |  | > 100 | 68.5 ± 3.8 | 9 ± 1.2 | 2.1 | ≥ 10 | 7.8 | ≥ 10 | 161 to 162 | 29.8 ± 2.5 |  |  |  |
| Fc1ccc(C(Cl)Cn2ncc3c(NCc4ccccc4)ncnc32)cc1 (stereo not shown) [Compound 5] | > 90 | 91.7 ± 5.3 | 10 | > 90 | 126 ± 6.4 | 6.9 ± 0.5 | 8.5 ± 1.4 | 10.8 ± 1.4 | 5.6 | ≥ 10 | 9.2 | ≥ 10 | 143 to 144 | 6.8 ± 0.3 | 84.2 | 3.14 ± 0.38 | further decrease in cell viability (LN229 cells [7]; 10 µM): ~ −30%; further decrease in cell viability (LN229 cells [7]; 100 µM): ~ −30%; reversibility of cytotoxic effect (LN229 cells [7]; 24 h treatment, 48 h drug-free medium): irreversible cytotoxic effect; change in cells in G2/M phase vs control (DBTRG cells): +38.1%; change in cells in sub G0/G1 area vs control (DBTRG cells): +15.6%; change in cells in G0/G1 phase vs control (LN229 cells [8]): −32.4%; change in cells in sub G0/G1 phase vs control (LN229 cells [8]): +32.1%; percentage of cells in the S and G2/M phases vs control (LN229 cells [8]): No significant differences; wound closure (LN229 cells [9]; 0.25 µM): ~60%; wound closure (LN229 cells [9]; 0.5 µM): ~60%; wound left opened (LN229 cells [9]; 2.5 µM): more than 80%; wound left opened (LN229 cells [9]; 5 µM): more than 80% |
| Fc1ccc(C(Cl)Cn2ncc3c(NCc4ccccc4F)ncnc32)cc1 (stereo not shown) [Compound 6] |  |  |  |  |  | 33.8 ± 2.3 | 20.1 ± 1.8 | 11.7 ± 1.5 | 4.4 | ≥ 10 | 10.1 | ≥ 10 |  | 32.4 ± 2.7 | 69.9 | 0.07 ± 0.01 |  |
